Assay results: paper PMC3089805 (Chemmedchem, 2010)
Converted amounts (≈) assume the structure as drawn. Where two headings read alike, the source gives them in different places. Marks after values point to notes of the source that are not given here.

How the values were obtained:
[1] = Human foreskin cell toxicity; format: cell-based; conditions: human
C. jejuni strain H840 = test: MIC determination, liquid microdilution, C. jejuni; format: cell-based; conditions: Campylobacter jejuni, H840, 27 h, read-out: MIC C. jejuni
H. pylori strain 26695 = test: MIC determination, liquid microdilution, H. pylori; format: cell-based; conditions: Helicobacter pylori, 26695, 27 h, read-out: MIC H. pylori
S. epidermidis = test: MIC determination, liquid microdilution, S. epidermidis; format: cell-based; conditions: Staphylococcus epidermidis, read-out: MIC S. epidermidis
S. aureus (MRSA) = test: MIC determination, liquid microdilution, S. aureus; format: cell-based; conditions: Staphylococcus aureus, read-out: MIC S. aureus (MRSA)
C. difficile VPI 10463 = test: MIC determination, agar dilution, C. difficile; format: cell-based, Clostridium difficile; conditions: Clostridioides difficile, VPI10463, 18 h, read-out: MIC C. difficile
H. pylori PFOR enzyme = test: Direct PFOR enzyme assay; format: biochemical; conditions: [Drug] = 40 μM
Human foreskin cells = test: Human foreskin cell toxicity; format: cell-based
E. coli = test: MIC against E. coli; format: cell-based; conditions: Escherichia coli

| Structure (SMILES) | CC50 at 48 h ([1]; human foreskin cells) [µM] | MIC (C. jejuni strain H840) [µM] | MIC (H. pylori strain 26695) [µM] | MIC (S. epidermidis) [µM] | MIC (S. aureus (MRSA)) [µM] | MIC (C. difficile VPI 10463) [µM] | PFOR Inhibition (H. pylori PFOR enzyme) | toxicity to human foreskin cells (in words) (Human foreskin cells) | PFOR Inhibition (H. pylori PFOR enzyme; listed as 1, 40 µM) [%] | PFOR Inhibition (H. pylori PFOR enzyme; listed as NTZ, 40 µM) | MIC (E. coli; read-out: E. coli MIC) [µM] | MIC (E. coli; read-out: E. coli MIC, stated in text) [mg/L] | CC50 at 48 h [1] [µM] |
| --- | --- | --- | --- | --- | --- | --- | --- | --- | --- | --- | --- | --- | --- |
| O=C(Nc1ncc([N+](=O)[O-])s1)c1sc2ccccc2c1Cl [Analogue 85, 3-Chloro-N-(5-nitrothiazol-2-yl)benzo[b]thiophene-2-carboxamide] | > 47.1 | – | – | – | – | – | – | – | – | – | – | – | – |
| CC(=O)Nc1ncc([N+](=O)[O-])s1 [Analogue 48, N-(5-Nitrothiazol-2-yl)acetamide] | > 85.5 | 10.7 (≈ 2 µg/mL) | 0.7 (≈ 0.131 µg/mL) | 21.4 (≈ 4.01 µg/mL) | 171 (≈ 32 µg/mL) | – | – | – | – | – | – | – | – |
| O=C(Nc1ncc([N+](=O)[O-])s1)c1ccsc1 [Analogue 74, N-(5-Nitrothiazol-2-yl)thiophene-3-carboxamide] | > 62.7 | 5.9 (≈ 1.51 µg/mL) | 0.7 (≈ 0.179 µg/mL) | 15.7 (≈ 4.01 µg/mL) | 23.5 (≈ 6 µg/mL) | 2.9 (≈ 0.74 µg/mL) | 58.5 ± 3.5 ^b % | – | – | – | – | – | – |
| O=C(Nc1ncc([N+](=O)[O-])s1)c1cccc(C(F)(F)F)c1Cl [Analogue 40, 2-Chloro-N-(5-nitrothiazol-2-yl)-3-(trifluoromethyl)benzamide] | > 45.5 | – | 0.9 (≈ 0.317 µg/mL) | 11.4 (≈ 4.01 µg/mL) | 11.4 (≈ 4.01 µg/mL) | – | – | – | – | – | – | – | – |
| O=C(Nc1ncc([N+](=O)[O-])s1)c1ccc(F)cc1 [Analogue 8, 4-Fluoro-N-(5-nitrothiazol-2-yl)benzamide] | 29.9 | 2.8 (≈ 0.748 µg/mL) | 0.9 (≈ 0.241 µg/mL) | – | – | 3.3 (≈ 0.882 µg/mL) | 85 ^b % | – | – | – | – | – | – |
| O=C(Nc1ncc([N+](=O)[O-])s1)c1cccc(OC(F)(F)F)c1 [Analogue 31, N-(5-Nitrothiazol-2-yl)-3-(trifluoromethoxy)benzamide] | > 48 | 9 (≈ 3 µg/mL) | 1.1 (≈ 0.367 µg/mL) | 12 (≈ 4 µg/mL) | 6 (≈ 2 µg/mL) | – | – | – | – | – | – | – | – |
| O=C(Nc1ncc([N+](=O)[O-])s1)c1ccc([N+](=O)[O-])o1 [Analogue 64, 5-Nitro-N-(5-nitrothiazol-2-yl)furan-2-carboxamide] | > 56.3 | 7 (≈ 1.99 µg/mL) | 21.1 (≈ 6 µg/mL) | 28.1 (≈ 7.99 µg/mL) | 113 (≈ 32 µg/mL) | – | – | – | – | – | – | – | – |
| O=C(Nc1ncc([N+](=O)[O-])s1)c1cccs1 [Analogue 76, N-(5-Nitrothiazol-2-yl)thiophene-2-carboxamide] | > 62.7 | – | – | 31.3 (≈ 7.99 µg/mL) | – | 1.5 (≈ 0.383 µg/mL) | 56 ± 6 ^b % | – | – | – | – | – | – |
| O=C(Nc1ncc([N+](=O)[O-])s1)c1cc2ccccc2s1 [Analogue 84, N-(5-Nitrothiazol-2-yl)benzo[b]thiophene-2-carboxamide] | > 52.6 | 9.8 (≈ 2.99 µg/mL) | 2.5 (≈ 0.763 µg/mL) | 13.1 (≈ 4 µg/mL) | 6.6 (≈ 2.02 µg/mL) | – | – | – | – | – | – | – | – |
| O=C(Nc1ncc([N+](=O)[O-])s1)c1cccc(C(F)(F)F)c1 [Analogue 23, N-(5-Nitrothiazol-2-yl)-3-(trifluoromethyl)benzamide] | > 50.4 | 4.7 (≈ 1.49 µg/mL) | 3.5 (≈ 1.11 µg/mL) | 12.6 (≈ 4 µg/mL) | – | 0.5 (≈ 0.159 µg/mL) | 41.5 ± 5.5% | not toxic | – | – | – | – | – |
| O=C(Nc1ncc([N+](=O)[O-])s1)c1ccoc1 [Analogue 60, N-(5-Nitrothiazol-2-yl)furan-3-carboxamide] | > 66.9 | – | – | 33.4 (≈ 7.99 µg/mL) | – | 1.7 (≈ 0.407 µg/mL) | 58 ± 2 ^b % | – | – | – | – | – | – |
| O=C(Nc1ncc([N+](=O)[O-])s1)c1ccc(-c2cccc(C(F)(F)F)c2)o1 [Analogue 68, N-(5-Nitrothiazol-2-yl)-5-(3-(trifluoromethyl)phenyl)furan-2-carboxamide] | > 41.7 | 8.5 (≈ 3.26 µg/mL) | 1.1 (≈ 0.422 µg/mL) | 5.7 (≈ 2.18 µg/mL) | 11.4 (≈ 4.37 µg/mL) | – | – | – | – | – | – | – | – |
| O=C(Nc1ncc([N+](=O)[O-])s1)c1sc2cc(F)ccc2c1Cl [Analogue 86, 3-Chloro-6-fluoro-N-(5-nitrothiazol-2-yl)benzo[b]thiophene-2-carboxamide] | 33.5 | 5.6 (≈ 2 µg/mL) | 1 (≈ 0.358 µg/mL) | 5.6 (≈ 2 µg/mL) | 2.1 (≈ 0.751 µg/mL) | – | – | – | – | – | – | – | – |
| O=C(Nc1ncc([N+](=O)[O-])s1)c1ccco1 [Analogue 61, N-(5-Nitrothiazol-2-yl)furan-2-carboxamide] | 66.9 | 8.4 (≈ 2.01 µg/mL) | 1 (≈ 0.239 µg/mL) | 66.9 (≈ 16 µg/mL) | 50.2 (≈ 12 µg/mL) | 2.4 (≈ 0.574 µg/mL) | 42 ^b % | – | – | – | – | – | – |
| O=C(Nc1ncc([N+](=O)[O-])s1)c1ccc(Cl)c(C(F)(F)F)c1 [Analogue 41, 4-Chloro-N-(5-nitrothiazol-2-yl)-3-(trifluoromethyl)benzamide] | > 45.5 | 2.8 (≈ 0.985 µg/mL) | 2.8 (≈ 0.985 µg/mL) | 2.8 (≈ 0.985 µg/mL) | 2.8 (≈ 0.985 µg/mL) | 1.4 (≈ 0.492 µg/mL) | 33 ± 1% | – | – | – | – | – | – |
| O=C(Nc1ncc([N+](=O)[O-])s1)c1cc(C(F)(F)F)cc(C(F)(F)F)c1 [Analogue 38, N-(5-Nitrothiazol-2-yl)-3,5-bis(trifluoromethyl)benzamide] | 10.4 | 41.5 (≈ 16 µg/mL) | 5.2 (≈ 2 µg/mL) | 1.9 (≈ 0.732 µg/mL) | 2.6 (≈ 1 µg/mL) | – | – | particularly toxic | – | – | – | – | – |
| CC(=O)Oc1ccccc1C(=O)Nc1ncc([N+](=O)[O-])s1 [Nitazoxanide, reference compound] | > 52.1 | 39.1 (≈ 12 µg/mL) | 13 (≈ 3.99 µg/mL) | 52.1 (≈ 16 µg/mL) | 39.1 (≈ 12 µg/mL) | 1.2 (≈ 0.369 µg/mL) | – | – | 54 ± 7 | [c] For PFOR inhibition assays, drug concentration was fixed at 40 μM which bench marks NTZ at ~50% inhibition. | > 104 | > 32 | – |
| O=C(Nc1ncc([N+](=O)[O-])s1)c1cccnc1F [Analogue 59, 2-Fluoro-N-(5-nitrothiazol-2-yl)nicotinamide] | > 59.7 | – | – | 119 (≈ 32 µg/mL) | 119 (≈ 32 µg/mL) | 2.8 (≈ 0.751 µg/mL) | 61 ± 13% | – | – | – | – | – | – |
| O=C(Nc1ncc([N+](=O)[O-])s1)c1cccc([N+](=O)[O-])c1 [Analogue 26, 3-Nitro-N-(5-nitrothiazol-2-yl)benzamide] | – | 27.2 (≈ 8 µg/mL) | 1.3 (≈ 0.383 µg/mL) | 10.2 (≈ 3 µg/mL) | 10.2 (≈ 3 µg/mL) | – | – | – | – | – | – | – | 27.2 |
| O=C(Nc1ncc([N+](=O)[O-])s1)c1cc(F)c(F)c(F)c1 [Analogue 13, 3,4,5-Trifluoro-N-(5-nitrothiazol-2-yl)benzamide] | – | 4.9 (≈ 1.49 µg/mL) | 1.2 (≈ 0.364 µg/mL) | – | – | – | – | – | – | – | – | – | – |
| COc1cccc(C(=O)Nc2ncc([N+](=O)[O-])s2)c1 [Analogue 29, 3-Methoxy-N-(5-nitrothiazol-2-yl)benzamide] | – | 7.2 (≈ 2.01 µg/mL) | 1.3 (≈ 0.363 µg/mL) | – | – | – | – | – | – | – | – | – | – |
| O=C(Nc1ncc([N+](=O)[O-])s1)c1ccc(-c2ccccc2)s1 [Analogue 80, N-(5-Nitrothiazol-2-yl)-5-phenylthiophene-2-carboxamide] | – | 72.4 (≈ 24 µg/mL) | 1.5 (≈ 0.497 µg/mL) | – | – | – | – | – | – | – | – | – | – |
| CCCCCC(=O)Nc1ncc([N+](=O)[O-])s1 [Analogue 50, N-(5-Nitrothiazol-2-yl)hexanamide] | > 65.8 | 2.1 (≈ 0.511 µg/mL) | 0.5 (≈ 0.122 µg/mL) | – | 132 (≈ 32 µg/mL) | 8.2 (≈ 1.99 µg/mL) | 64 ± 6 ^b % | – | – | – | – | – | – |
| O=C(Nc1ncc([N+](=O)[O-])s1)c1sccc1Cl [Analogue 78, 3-Chloro-N-(5-nitrothiazol-2-yl)thiophene-2-carboxamide] | – | 20.7 (≈ 6 µg/mL) | 5.2 (≈ 1.51 µg/mL) | – | – | – | – | – | – | – | – | – | – |
| O=C(Nc1ncc([N+](=O)[O-])s1)c1c(F)cc(F)cc1F [Analogue 12, 2,4,6-Trifluoro-N-(5-nitrothiazol-2-yl)benzamide] | – | 9.9 (≈ 3 µg/mL) | 4.9 (≈ 1.49 µg/mL) | – | – | – | – | – | – | – | – | – | – |
